Measurements taken from patent US12514800B2, “Personal and home care compositions comprising fatty acids from tung seed oil as antimicrobial preservative” (GALAXY SURFACTANTS LTD., priority 2020, dated 2026).

Assay: UV absorption (E1% 1 cm)
Assay type: physicochemical
Settings: at the λmax printed in Table 1 (290 nm fatty acids; 305 nm Homosalate, Octyl salicylate)
Description: Personal care composition comprising fatty acids, as obtained synthetically from Tung seed oil by aforementioned process, have good UV absorbing activity arising from the conjugated system of the fatty acids and is evident from its value of E1% lcm which is 1600 at 270 nm and 360 at 290 nm. In view of incorporation of the fatty acids in the personal care composition, not only the ingredients of the formulations are protected but also the skin and hair are protected from the ravages of solar radiation when the formulations are applied. […] The same is evident from the values of E1% lcm which is 360 at 290 nm (FIG. 2). UV B radiation of solar spectrum is the most damaging since it causes skin cancer.

E1%, 1 cm: 180
SMILES: CC1CC(OC(=O)c2ccccc2O)CC(C)(C)C1 (stereo not shown) [Homosalate]
